Assays:
[1] = test system: corn (Zea mays var. Early Sunglow); test: Pot study, phytotoxicity on corn (Example 2); type: in vivo; details: 0.5 and 1.0 mg/mL, 7, 14 and 21 days after treatment
Protocol: A pot study is conducted to test the phytotoxicity of thaxtomin A on corn (Zea mays var. Early Sunglow) and wheat (Triticum aestivum var. PR1404). To confirm the activity on broadleaf weeds, pigweed (Amaranthus sp.) is planted in the same pot with either three corn or five wheat seeds, and sprayed simultaneously with the cereal test plants. The less than 3-inch tall plants grown under growth lights (12-h light/12-h dark) at 28° C. are sprayed with thaxtomin A solutions derived from a liquid culture of S. acidiscabies containing 0.5, and 1.0 mg thaxtomin A per mL of solvent (4% ethanol and 0.2% non-ionic surfactant). A solution of 4% ethanol +0.2% non-ionic surfactant without thaxtomin A is used as a control treatment. Each treatment is conducted in three replicates. Treated plants are kept at 28° C. under growth lights and observed at three time points—7, 14 and 21 days after treatment—for visual symptoms of phytotoxicity on corn and wheat and % control of pigweed.

barnyard grass = test: Greenhouse spray test bialaphos + MBI-005 (Example 10); type: in vivo
Protocol: The MBI-005 and bialaphos were prepared at various concentrations either as single ingredients or in combination with bialaphos. The treatments were applied at approximately ⅔ ml per replicate with a hand-help spray nozzle to barnyard grass or sedge. There were 3 replicates per treatment which were randomized after spray and were kept in a greenhouse at 25° C. for evaluation of phytotoxicity (% control).

sedge = test: Greenhouse synergy test MBI-005 + commercial herbicides (Example 11); type: in vivo; details: 14 days
Procedure, shortened: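 Greenhouse pot test of MBI-005 combined with rice herbicides, sprayed at about ⅔ ml per replicate, 3 randomized replicates per treatment, held at 25° C. Weed control efficacy rated 7 and 14 days after treatment.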

[2] = test system: mono and dicotyledonous seedlings; details: cited from earlier work
redstem = test: Field study on rice, weed count (Example 6); type: in vivo; details: Thaxtomin A 180 g/acre; per plot
Protocol: (§1) The efficacy of thaxtomin A derived from a liquid culture of S. acidiscabies is tested in a field study on rice using 4.9 sq-ft plots surrounded by a metal ring. Treatments with either thaxtomin A or thaxtomin A in combination with lemongrass oil (formulated as GreenMatch EX) or cyhalofop (formulated as Clincher CA) were done using a hand-held sprayer with a water volume corresponding to 57 gallons per acre. Rice (variety M209) was grown until maturity and harvested by hand for yield and weed count assessment. Results of yield (kg/ha), and numbers of redstem, small-flower umbrella sedge, and sprangletop in each plot are presented in Table 3 below.

sprangletop = test: Field study on rice, weed count (Example 6); type: in vivo; details: Thaxtomin A 180 g/acre, per plot
Protocol: as §1

[3] = test system: small-flower umbrella sedge; test: Field study on rice, weed count (Example 6); type: in vivo; details: Thaxtomin A 180 g/acre, per plot
Protocol: as §1

[4] = test system: Yellow nutsedge (Cyperus esculentus); test: Post-emergence test of MBI-005, lab (Example 13); type: in vivo
Protocol: (§2) To further describe the spectrum of post-emergence activity, tests were conducted in laboratory and field conditions. For laboratory testing, 3-10 plants (depending on the species) at the 1-2 leaf stage plants in 2.5 cm square pots containing Sunshine Mix No. 2 planting media were sprayed at 1 mg MBI-005/mL at a rate of 40 gal/A using a cabinet track sprayer. Negative controls were sprayed with water and positive controls with glufosinate. Pots were randomly placed in a growth room at 25° C. and 50% RH, and watered as necessary. Treatments were replicated five times and evaluated at 7 and 14 days for visual % damage, with 0% indicating no damage and 100% indicating plant death.

[5] = test system: Dandelion (Taraxacum oficinale); test: Post-emergence test of MBI-005, lab (Example 13); type: in vivo
Protocol: as §2

[6] = test system: Sunflower (Helianthus anuus); test: Post-emergence test of MBI-005, lab (Example 13); type: in vivo
Protocol: as §2

[7] = test system: Bindweed (Convolvulus arvensis); test: Post-emergence test of MBI-005, lab (Example 13); type: in vivo
Protocol: as §2

[8] = test system: Mustard (Brassica juncea); test: Post-emergence test of MBI-005, lab (Example 13); type: in vivo
Protocol: as §2

[9] = test system: Redstem filaree (Erodium cicutarium); test: Post-emergence test of MBI-005, lab (Example 13); type: in vivo
Protocol: as §2

[10] = test system: Lambsquarters (Chenopodium album); test: Post-emergence test of MBI-005, lab (Example 13); type: in vivo
Protocol: as §2

[11] = test system: Mallow (Malva parviflora); test: Post-emergence test of MBI-005, lab (Example 13); type: in vivo
Protocol: as §2

[12] = test system: Crabgrass (Digitaria sanguinalis); test: Pre-emergence test of MBI-005, lab & field (Example 12); type: in vivo; details: pre-emergent; further: ranges in brackets are in %
Protocol: (§3) To further describe the spectrum of pre-emergence activity, tests were conducted in laboratory and field conditions. In laboratory testing, 35 seeds were placed on a ring of blotter paper inside a 3 cm petri dish and supplied with 4 ml of MBI-005 (≦0.1 mg MBI-005/ml). Water was used as a negative control and oryzalin applied as a positive control. Petri dishes were randomly placed in a growth room at 25° C. and 50% RH. Treatments were replicated three times and germinated seeds were counted 7 and 14 days after application; water was added as necessary to maintain moisture levels inside each petri dish.
(§4) In field testing, field soil containing weed seeds were treated with 38.2 L MBI-005/ha at a spray volume of 280 L/ha using a CO2 sprayer with flat fan nozzles. Treatments, including water as the negative control and Gallery as the positive control, were replicated four times and applied twice at a four week interval. Treatments were evaluated visually as % cover and above-ground fresh weights per container were taken.

Bluegrass (Poa annua) = test: as above; type: in vivo; details: pre-emergent; further: ranges in brackets are in %
Protocol: as §3, §4

ragweed = test: Greenhouse synergy test MBI-005 + commercial herbicides (Example 11); type: in vivo; details: 14 days
Protocol: The test species barnyard grass, ragweed, sedge, and broad-leaf mustard were used for the valuation of synergy between MBI-005 and the rice herbicides clomazone, penoxsulam, cyhalofop, fenoxaprop-p-ethyl, bispyribac-sodium, thiobencarb, and propanil.
[…] other herbicides commonly used for field crops, glyphosate, glufosinate, synthetic version of bialaphos, and mesotrione were also tested for synergy with MBI-005 on crabgrass and ragweed.
There were 3 replicates per treatment which were sprayed with approximately ⅔ ml per replicate. The treatments were completely randomized and kept in a greenhouse at 25° C. The efficacy was rated at 7 and 14 days post treatment.

[13] = in vivo; cited from earlier work

CN1C(=O)[C@](O)(Cc2cccc(O)c2)N(C)C(=O)[C@@H]1Cc1c[nH]c2cccc([N+](=O)[O-])c12 [thaxtomin A]
symptoms of phytotoxicity [1]: no symptoms of phytotoxicity are observed
% Control (14 days) (barnyard grass; Table 6, MBI-005 0.25 mg/L): 1.3 ab %
% Control (14 days) (barnyard grass; Table 7, MBI-005 0.25 mg/mL): 6.7 bc %
% Control (7 days) (barnyard grass; Table 8, MBI-005 0.38 mg/mL): 6.7 ab %
% Control (14 days) (barnyard grass; Table 8, MBI-005 0.38 mg/mL): 21.7 b %
% Control MBI-005 (sedge; MBI-005 0.01 mg/mL (cyhalofop line)): 20.0%
% Control MBI-005 (sedge; MBI-005 0.01 mg/mL (penoxsulam line)): 20.0%
% Control MBI-005 (sedge; MBI-005 0.02 mg/mL (fenoxaprop-p-ethyl line)): 70.8%
% Control MBI-005 (sedge; MBI-005 0.02 mg/mL (thiobencarb line)): 37.5%
concentration causing cell swelling, necrosis and growth inhibition [2]: less than 1 uM
# of redstem (redstem): 0.5b
# of sprangletop (sprangletop; listed as Thaxtomin A): 76.0a
# of sprangletop (sprangletop; listed as thaxtomin): no effect
# of sedge ([3]; listed as Thaxtomin A): 1.0a
# of sedge ([3]; listed as thaxtomin): significantly reduced the number of sedges
Rating at 1 mg/ml (Post-Emergence % control) [4]: + (0-50)
Rating at 1 mg/ml (Post-Emergence % control) [5]: ++ (51-80)
Rating at 1 mg/ml (Post-Emergence % control) [6]: ++ (51-80)
Rating at 1 mg/ml (Post-Emergence % control) [7]: + (0-50)
Rating at 1 mg/ml (Post-Emergence % control) [8]: ++++ (91-100)
Rating at 1 mg/ml (Post-Emergence % control) [9]: ++ (51-80)
Rating at 1 mg/ml (Post-Emergence % control) [10]: +++ (81-90)
Rating at 1 mg/ml (Post-Emergence % control) [11]: + (0-50)
Rating at 0.1 mg/ml (Reduction of Germination) [12]: ++++ (95-100)
Rating at 0.1 mg/ml (Reduction of Germination) (Bluegrass (Poa annua)): ++++ (95-100)
% Control MBI-005 (ragweed; MBI-005 0.125 mg/mL (bispyribac-sodium line)): 23.3%
% Control MBI-005 (ragweed; MBI-005 0.125 mg/mL (glufosinate line)): 37.5%
% Control MBI-005 (ragweed; MBI-005 0.125 mg/mL (glyphosate line)): 6.7%
activity as pre and post emergent, non-systemic herbicides [13]: marked activity

From US9066516B2, “Uses of thaxtomin and thaxtomin compositions as herbicides” (priority 2008, dated 2015)
